Reference: doi:10.1101/706168v1 (biorxiv, 2019)

Tests used:
Test in all cases: cell-based
[1] = biological target: KCNQ1 (Homo sapiens, UniProt P51787)
[2] = biological target: T1, TRPC5 (Homo sapiens, UniProt Q9UL62)
T1 sequence (Q9UL62 1-973): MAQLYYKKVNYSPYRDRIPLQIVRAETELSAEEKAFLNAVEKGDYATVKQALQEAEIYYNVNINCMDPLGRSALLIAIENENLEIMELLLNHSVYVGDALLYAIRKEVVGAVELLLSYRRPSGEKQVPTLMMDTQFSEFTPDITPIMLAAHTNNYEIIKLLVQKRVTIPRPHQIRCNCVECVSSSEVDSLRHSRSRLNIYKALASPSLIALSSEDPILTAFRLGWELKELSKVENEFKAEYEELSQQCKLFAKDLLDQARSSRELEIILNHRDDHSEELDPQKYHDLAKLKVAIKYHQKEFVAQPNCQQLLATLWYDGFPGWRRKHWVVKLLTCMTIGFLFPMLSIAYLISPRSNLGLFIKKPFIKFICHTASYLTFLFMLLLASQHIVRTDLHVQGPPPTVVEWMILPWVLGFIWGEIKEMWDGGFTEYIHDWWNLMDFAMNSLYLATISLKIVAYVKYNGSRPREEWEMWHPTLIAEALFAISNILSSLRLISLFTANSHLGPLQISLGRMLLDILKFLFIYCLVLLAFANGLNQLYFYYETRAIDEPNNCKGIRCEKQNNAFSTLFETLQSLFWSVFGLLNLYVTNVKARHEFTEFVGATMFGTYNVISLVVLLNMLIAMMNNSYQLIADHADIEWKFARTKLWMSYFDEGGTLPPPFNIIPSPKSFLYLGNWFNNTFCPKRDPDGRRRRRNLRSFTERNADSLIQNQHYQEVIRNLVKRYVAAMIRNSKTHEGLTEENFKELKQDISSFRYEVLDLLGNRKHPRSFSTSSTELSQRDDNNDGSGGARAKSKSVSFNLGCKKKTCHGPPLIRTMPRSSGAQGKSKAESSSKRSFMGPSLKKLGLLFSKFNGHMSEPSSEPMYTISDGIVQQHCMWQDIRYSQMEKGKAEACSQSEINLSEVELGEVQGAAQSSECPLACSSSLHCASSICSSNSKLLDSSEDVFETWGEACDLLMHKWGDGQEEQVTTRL

[3] = biological target: T2, TRPC6 (Homo sapiens, UniProt Q9Y210)
T2 sequence (Q9Y210 1-931): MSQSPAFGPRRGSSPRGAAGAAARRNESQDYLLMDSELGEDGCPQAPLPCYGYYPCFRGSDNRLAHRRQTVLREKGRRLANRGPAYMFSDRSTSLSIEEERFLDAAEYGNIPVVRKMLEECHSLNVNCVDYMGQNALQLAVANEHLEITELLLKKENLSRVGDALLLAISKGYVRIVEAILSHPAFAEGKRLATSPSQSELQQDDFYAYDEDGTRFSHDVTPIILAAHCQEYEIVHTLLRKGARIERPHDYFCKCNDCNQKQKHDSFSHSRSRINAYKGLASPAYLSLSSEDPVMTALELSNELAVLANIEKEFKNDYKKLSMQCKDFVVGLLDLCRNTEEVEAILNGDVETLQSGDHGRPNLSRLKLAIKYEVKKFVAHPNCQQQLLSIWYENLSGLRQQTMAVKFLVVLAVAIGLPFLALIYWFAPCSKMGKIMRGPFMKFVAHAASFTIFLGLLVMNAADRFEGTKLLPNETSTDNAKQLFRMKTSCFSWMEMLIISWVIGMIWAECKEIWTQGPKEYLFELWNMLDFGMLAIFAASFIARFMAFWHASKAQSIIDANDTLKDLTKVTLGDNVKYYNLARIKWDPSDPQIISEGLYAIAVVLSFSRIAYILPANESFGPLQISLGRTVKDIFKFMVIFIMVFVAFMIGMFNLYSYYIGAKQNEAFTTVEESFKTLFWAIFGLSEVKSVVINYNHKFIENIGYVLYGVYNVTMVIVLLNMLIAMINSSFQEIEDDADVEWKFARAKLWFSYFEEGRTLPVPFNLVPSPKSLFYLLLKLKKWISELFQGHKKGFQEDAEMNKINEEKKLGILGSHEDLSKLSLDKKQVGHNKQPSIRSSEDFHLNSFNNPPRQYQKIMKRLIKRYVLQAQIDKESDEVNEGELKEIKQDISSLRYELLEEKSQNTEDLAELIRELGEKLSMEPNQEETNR

[4] = biological target: Kv1.5 (Homo sapiens, UniProt P22460)
Kv1.5, sequence (P22460 whole entry): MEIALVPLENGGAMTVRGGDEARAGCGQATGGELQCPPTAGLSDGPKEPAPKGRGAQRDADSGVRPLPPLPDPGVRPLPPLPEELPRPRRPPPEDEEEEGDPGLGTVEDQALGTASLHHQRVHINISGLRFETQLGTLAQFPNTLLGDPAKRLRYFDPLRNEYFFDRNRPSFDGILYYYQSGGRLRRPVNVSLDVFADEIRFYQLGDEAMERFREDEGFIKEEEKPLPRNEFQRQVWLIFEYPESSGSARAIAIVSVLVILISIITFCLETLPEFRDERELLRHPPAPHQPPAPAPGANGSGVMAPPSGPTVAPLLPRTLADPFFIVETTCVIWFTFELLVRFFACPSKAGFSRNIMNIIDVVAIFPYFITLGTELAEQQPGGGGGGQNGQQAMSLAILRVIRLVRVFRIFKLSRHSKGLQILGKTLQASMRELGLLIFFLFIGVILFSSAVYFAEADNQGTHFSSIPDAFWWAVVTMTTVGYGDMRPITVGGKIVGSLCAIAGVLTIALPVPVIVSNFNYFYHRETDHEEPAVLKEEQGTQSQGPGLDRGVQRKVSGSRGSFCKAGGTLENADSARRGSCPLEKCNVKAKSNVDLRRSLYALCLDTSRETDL

KCNQ1, sequence (P51787 whole entry): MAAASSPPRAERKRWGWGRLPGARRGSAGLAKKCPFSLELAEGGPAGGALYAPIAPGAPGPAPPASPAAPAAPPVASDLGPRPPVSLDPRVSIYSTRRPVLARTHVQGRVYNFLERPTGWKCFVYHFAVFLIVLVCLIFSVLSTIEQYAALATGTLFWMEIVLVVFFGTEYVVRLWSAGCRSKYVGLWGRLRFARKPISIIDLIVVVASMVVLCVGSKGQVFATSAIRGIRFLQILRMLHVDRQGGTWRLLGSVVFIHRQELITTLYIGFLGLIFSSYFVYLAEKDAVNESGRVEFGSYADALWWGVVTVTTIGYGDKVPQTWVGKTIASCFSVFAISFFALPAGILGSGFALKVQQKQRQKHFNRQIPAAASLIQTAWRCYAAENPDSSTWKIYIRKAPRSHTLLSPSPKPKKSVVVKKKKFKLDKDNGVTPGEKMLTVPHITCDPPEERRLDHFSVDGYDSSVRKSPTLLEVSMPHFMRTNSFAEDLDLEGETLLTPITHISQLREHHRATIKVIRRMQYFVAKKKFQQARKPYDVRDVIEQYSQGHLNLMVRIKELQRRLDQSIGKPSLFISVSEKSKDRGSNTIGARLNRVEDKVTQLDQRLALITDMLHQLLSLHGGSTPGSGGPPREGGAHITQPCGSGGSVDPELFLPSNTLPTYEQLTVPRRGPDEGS

With `O=C(c1ccccc1F)N1CCN(Cc2c(-c3ccc(Br)cc3)nc3ccccn23)CC1` [BAY 1000493, (4-{[2-(4-bromophenyl)imidazo[1,2-a]pyridin-3-yl]methyl}vpiperazin-1-yl)(2-fluorophenyl)methanone] the IC50 [1] was > 30 µM, the IC50 [2] was > 30 µM and the IC50 [3] was > 30 µM. The IC50 [4] was 19 µM.
